Earlier results on one compound are cited in patent US20120196889A1, “CATECHOLAMINE DERIVATIVES AND PRODRUGS THEREOF” (H. Lundbeck A/S, priority 2009, published 2012).

For this data set the following is noted: in man after oral dosing; high hepatic first-pass metabolism.

With `CCCc1cc2c(s1)CN[C@@H]1CCc3cc(OC(C)=O)c(OC(C)=O)cc3[C@@H]21` [Adrogolide], the oral bioavailability is on record as approximately 4%.
